Patent US20220226339A1, “INHIBITATION OF ACID LIPASE FOR CANCER THERAPY” (Heinrich-Heine-Universität Düsseldorf, priority 2019, published 2022)

Assays:
MDA-MB-231 cancer cells [1] = test: Cell proliferation of MDA-MB-231 cancer cells (CellTiterGlo); assay type: cell-based, human; conditions: MDA-MB-231, 3 days, 15% FCS RPMI, Lalistat concentrations descending from 50 μM, non-cell-toxic range
Description: Cell proliferation was ascertained using Cell-TiterGlo®.
MDA-MB-231 cancer cells were incubated with Lalistat 2 (selective LAL inhibitor) or the formulation control (mock).
MDA-MB-231 cancer cells were incubated with Lalistat 2 (selective LAL inhibitor) or the formulation control (mock). For the formulation control, […] alone was used with the same concentration of DMSO as for Lalistat 2. 24 hours after seeding, the cancer cells were incubated for 3 days in 15% FCS-containing RPMI medium having concentrations of Lalistat descending from 50 μM or the corresponding DMSO concentration as control. Subsequently, CellTiterGlo® (Promega) was used to quantify the number of vital cancer cells.

MDA-MB-231 cancer cells [2] = test: Relative expression of tumor stem cell markers and vimentin by quantitative PCR; assay type: cell-based, human; conditions: MDA-MB-231, 6 days, 50 μM Lalistat vs 0.05% DMSO
Description: 24 hours after seeding, MDA-MB-231 cancer cells were incubated for 6 days in 15% FCS-containing RPMI medium containing 50 μM Lalistat or formulation control (0.05% DMSO). Subsequently, the relative expression of the (A-C) tumor stem cell markers ALDH1, CD44 and the ratio CD44/CD24 and of the (D) mesenchymal marker vimentin was analyzed by means of quantitative PCR. The values were normalized to the housekeepers GAPDH or HRPT1. The target was amplified in a singleplex assay using “SYBR Green”.
The results of two independent experiments with three biological replicates in each case are depicted. Significance difference compared to formulation control: ALDH: 0.0026 (GAPDH), 0.0004 (HRPT1); CD44: […] (GAPDH/HRPT1); CD44/CD24: <0.01

[3] = system: PD-L1 expression on cancer cells; test: PD-L1 expression on cancer cells after Lalistat treatment; assay type: cell-based

**Q.** For `O=C(Oc1nsnc1N1CCCCC1)N1CCCCC1` [Lalistat 2, 4-(piperidin-1-yl)-1,2,5-thiadiazol-3-yl piperidine-1-carboxylate], which “cell proliferation compared to formulation control” value (MDA-MB-231 cancer cells [1]) is on record?
**A.** antiproliferative effect

**Q.** And the “cell proliferation compared to formulation control” value (MDA-MB-231 cancer cells [1]; listed as Lalistat)?
**A.** distinct inhibition of cell proliferation

**Q.** What about the “expression of mesenchymal marker vimentin” value (MDA-MB-231 cancer cells [2]; qPCR) of the same compound?
**A.** reduction in the expression

**Q.** What about the “expression of (tumor) stem cell markers (ALDH1, CD44, ratio CD44/CD24)” value (MDA-MB-231 cancer cells [2]; qPCR normalized to GAPDH or HRPT1) of the same compound?
**A.** reduction in the expression

**Q.** And the “PD-L1 expression on cancer cells” value [3]?
**A.** reduced PD-L1 expression
